{"source": "patent US20240059729A1", "about": "“MULTIFUNCTIONAL CYCLIC DINUCLEOTIDE AND USE THEREOF” (TYLIGAND BIOSCIENCE (SHANGHAI) LIMITED, priority 2020, published 2024)", "experiment": "Discovery and identification of metabolites in hepatocytes", "type": "in vitro ADME, mouse, rat, dog, monkey, human", "details": "5 species of hepatocytes, 240 min; FIG. 4-B", "description": "The main metabolites of the compounds of the invention in 5 species (mouse, rat, dog, monkey, human) of hepatocytes were similarly identified according to standard methods of in vitro metabolic stability studies conventional in the art, for example (Kems, Edward H. and Di Li (2008). Drug-like Properties: Concepts, Structure Design and Methods: From ADME to Toxicity Optimization, San Diego: Academic Press; Di, Li et al, Optimization of a High Throughput Microsomal Stability Screening Assay for Profiling Drug Discovery Candidates, J Biomol Screen. 2003, 8(4), 453).\nThe hepatocytes used in the experiment: human hepatocytes (SHQY, Cat. #BQHPCH10, Lot. #HEP190006-TA05), dog hepatocytes (BioIVT, Cat. #M00205, Lot. #ZMB); monkey hepatocytes (XENOTECH, Cat. #PPCH2000, Lot. #2010022), rat hepatocytes (SHQY, Cat. #BQR1000⋅H15, Lot. #HEP134049), and mouse hepatocytes (BioIVT, Cat. #M005052, Lot. #MEO).\nA HI hepatocyte maintenance medium (BIOIVT, Cat. #Z99009; Lot. #C02060C) was pre-warmed to 37° C. Cryopreserved hepatocyte tubes were removed from a liquid nitrogen tank and immediately placed in a shaking water bath at 37±1° C. for 2 minutes±15 seconds. […] The hepatocytes were counted and then the cell suspension was diluted in HI medium to the appropriate density (viable cell density=2×10^6 cells/mL). […]", "note": "Where a name gives a salt, the structure may show the parent alone.", "data": [{"molecule": "Nc1nc2c(ncn2[C@@H]2O[C@@H]3CO[P@@](=O)(S)OC4C(F)[C@H](n5cnc6c(N)nc(Cl)nc65)O[C@@H]4CO[P@@](=O)(S)OC2C3O)c(=O)[nH]1", "note": "(stereo partly drawn) [Example 10, (2′,3′)-cyclo-(Rp,Rp)-[2′-O-phosphorothioate-diester-guanosine]-[3′-O-phosphorothioate-diester-2-chloro-2′-deoxy-2′-fluoro-beta-adenosine] diammonium salt]", "values": [{"measurement": "Main metabolite in hepatocytes", "value": "Clofarabine"}]}]}
